Source: PubChem BioAssay AID602211 (Sanford-Burnham Center for Chemical Genomics, 2012)
Activity calls are given as the source filed them.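 How the source made its calls: active means mean IC50 at or below 10 µM; inactive means the rest.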

System: H9c2 cardiomyocytes, H2O2 protection, ATPLite viability, 2 h
Assay: protection of H9c2 cardiomyocytes from H2O2 death, dose response, cell-based, ATPLite luminescence, set 2 (AID 602211);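 further: potency is for protection so actives keep ATP signal up against peroxide killing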

Row | SMILES | IC50
1 | COc1ccc(-c2cc(NC=O)c3ncc(-c4ccc(C(C)=O)cc4)n3c2)cn1 | 4.52 µM
2 | CC/C(C)=N\N=C\c1c(O)n(CC)c2cc(C3=NNC(=O)CC3)ccc12 | 16.6 µM (inactive)
3 | CCN(CC)C(=O)c1[nH]cnc1C(=O)NCC(=O)OCc1ccccc1 | 6.88 µM
